The values below come from BindingDB's records for PubMed 33721669 (National Institute of Pharmaceutical Education and Research …, 2021).

The nature of assay [1]: Inhibition of PDK1 (unknown origin) by SelectScreen kinase assay.
Assay [2] can be described thus: Inhibition of VEGFR-2 (unknown origin) induced tube formation in HUVECs cocultured with fibroblasts measured after 11 days with media renewing every 3 days by staining based analysis.
Assay [3] has as its target Cyclin-dependent kinase 2 (Homo sapiens, UniProt P24941). As to the kind of experiment: Inhibition of CDK2 (unknown origin).

Each structure is given as a SMILES string.

A word on the IC50: it is the concentration needed to halve the response being measured. Read a high IC50 as weaker potency. Regarding `COc1cc2c(cc1OC)CN(CC(=O)Nc1ccc3c(c1)/C(=C/c1cnc[nH]1)C(=O)N3)CC2`, it took 98 µM to reach half-maximal inhibition in assay [1] (IC50).
On to `CCN(CC)CCN1Cc2[nH]c(/C=C3\C(=O)Nc4ccc(Br)cc43)c(C)c2C1=O`, for which, in assay [2], the IC50 is 179 nM.
In assay [3], `O=C1Nc2ccc(Br)cc2/C1=N/NC(=O)c1cc2cc(Br)ccc2o1` showed an IC50 of 38 nM.
Consider `COc1ccc2c(c1)/C(=N/NC(=O)c1cc3cc(Br)ccc3o1)C(=O)N2`, for which, in assay [3], the IC50 is 53 nM.
